Activity calls are given as the source filed them. The rule behind the calls is not given here.
What was measured:
Type in all cases: functional, organism-based
Settings in all cases: Trachea
[1] = system: Pseudomonas aeruginosa; assay: Antimicrobial activity against Pseudomonas aeruginosa 65.38-3 tracheal isolates from mechanically ventilated tuberculosis patient
[2] = system: Pseudomonas aeruginosa; assay: Antimicrobial activity against Pseudomonas aeruginosa 65.38-4 tracheal isolates from mechanically ventilated tuberculosis patient
[3] = system: Pseudomonas aeruginosa; assay: Antimicrobial activity against Pseudomonas aeruginosa 15G2 tracheal isolates from mechanically ventilated chronic respiratory insufficiency patient
[4] = system: Pseudomonas aeruginosa; assay: Antimicrobial activity against Pseudomonas aeruginosa 15G10 tracheal isolates from mechanically ventilated chronic respiratory insufficiency patient
[5] = system: Pseudomonas aeruginosa; assay: Antimicrobial activity against Pseudomonas aeruginosa 2C1 tracheal isolates from mechanically ventilated tuberculosis patient
[6] = system: Pseudomonas aeruginosa; assay: Antimicrobial activity against Pseudomonas aeruginosa 2A6 tracheal isolates from mechanically ventilated tuberculosis patient
[7] = system: Pseudomonas aeruginosa; assay: Antimicrobial activity against Pseudomonas aeruginosa 65.68-3 tracheal isolates from mechanically ventilated tuberculosis patient
[8] = system: Pseudomonas aeruginosa; assay: Antimicrobial activity against Pseudomonas aeruginosa 13D3 tracheal isolates from mechanically ventilated chronic respiratory insufficiency patient
[9] = system: Pseudomonas aeruginosa; assay: Antimicrobial activity against Pseudomonas aeruginosa 13D6 tracheal isolates from mechanically ventilated chronic respiratory insufficiency patient
[10] = system: Pseudomonas aeruginosa; assay: Antimicrobial activity against Pseudomonas aeruginosa 16D2 tracheal isolates from mechanically ventilated chronic respiratory insufficiency patient
[11] = system: Pseudomonas aeruginosa; assay: Antimicrobial activity against Pseudomonas aeruginosa 16D5 tracheal isolates from mechanically ventilated chronic respiratory insufficiency patient
[12] = system: Pseudomonas aeruginosa; assay: Antimicrobial activity against Pseudomonas aeruginosa 19B1 tracheal isolates from mechanically ventilated chronic respiratory insufficiency patient
[13] = system: Pseudomonas aeruginosa; assay: Antimicrobial activity against Pseudomonas aeruginosa 19C2 tracheal isolates from mechanically ventilated chronic respiratory insufficiency patient
[14] = system: Pseudomonas aeruginosa; assay: Antimicrobial activity against Pseudomonas aeruginosa 19C5 tracheal isolates from mechanically ventilated chronic respiratory insufficiency patient
[15] = system: Pseudomonas aeruginosa; assay: Antimicrobial activity against Pseudomonas aeruginosa 19C12 tracheal isolates from mechanically ventilated chronic respiratory insufficiency patient
[16] = system: Pseudomonas aeruginosa; assay: Antimicrobial activity against Pseudomonas aeruginosa 19D10 tracheal isolates from mechanically ventilated chronic respiratory insufficiency patient
[17] = system: Pseudomonas aeruginosa; assay: Antimicrobial activity against Pseudomonas aeruginosa 3D10 tracheal isolates from mechanically ventilated chronic respiratory insufficiency patient
[18] = system: Pseudomonas aeruginosa; assay: Antimicrobial activity against Pseudomonas aeruginosa 5F2 tracheal isolates from mechanically ventilated chronic respiratory insufficiency patient
[19] = system: Pseudomonas aeruginosa; assay: Antimicrobial activity against Pseudomonas aeruginosa 5F8 tracheal isolates from mechanically ventilated chronic respiratory insufficiency patient
[20] = system: Pseudomonas aeruginosa; assay: Antimicrobial activity against Pseudomonas aeruginosa 9A1 tracheal isolates from mechanically ventilated chronic respiratory insufficiency patient
[21] = system: Pseudomonas aeruginosa; assay: Antimicrobial activity against Pseudomonas aeruginosa 9A7 tracheal isolates from mechanically ventilated chronic respiratory insufficiency patient
[22] = system: Pseudomonas aeruginosa; assay: Antimicrobial activity against Pseudomonas aeruginosa 10B3 tracheal isolates from mechanically ventilated chronic respiratory insufficiency patient
[23] = system: Pseudomonas aeruginosa; assay: Antimicrobial activity against Pseudomonas aeruginosa 12A3 tracheal isolates from mechanically ventilated chronic respiratory insufficiency patient
[24] = system: Pseudomonas aeruginosa; assay: Antimicrobial activity against Pseudomonas aeruginosa 29H1 tracheal isolates from mechanically ventilated chronic respiratory insufficiency patient
[25] = system: Pseudomonas aeruginosa; assay: Antimicrobial activity against Pseudomonas aeruginosa 19E1 tracheal isolates from mechanically ventilated chronic respiratory insufficiency patient
[26] = system: Pseudomonas aeruginosa; assay: Antimicrobial activity against Pseudomonas aeruginosa 19E12 tracheal isolates from mechanically ventilated chronic respiratory insufficiency patient
[27] = system: Pseudomonas aeruginosa; assay: Antimicrobial activity against Pseudomonas aeruginosa 19F1 tracheal isolates from mechanically ventilated chronic respiratory insufficiency patient
[28] = system: Pseudomonas aeruginosa; assay: Antimicrobial activity against Pseudomonas aeruginosa 19F2 tracheal isolates from mechanically ventilated chronic respiratory insufficiency patient
[29] = system: Pseudomonas aeruginosa; assay: Antimicrobial activity against Pseudomonas aeruginosa 24D5 tracheal isolates from mechanically ventilated chronic respiratory insufficiency patient
[30] = system: Pseudomonas aeruginosa; assay: Antimicrobial activity against Pseudomonas aeruginosa 24E1 tracheal isolates from mechanically ventilated chronic respiratory insufficiency patient
[31] = system: Pseudomonas aeruginosa; assay: Antimicrobial activity against Pseudomonas aeruginosa 24E2 tracheal isolates from mechanically ventilated chronic respiratory insufficiency patient
[32] = system: Pseudomonas aeruginosa; assay: Antimicrobial activity against Pseudomonas aeruginosa 24E6 tracheal isolates from mechanically ventilated chronic respiratory insufficiency patient
[33] = system: Pseudomonas aeruginosa; assay: Antimicrobial activity against Pseudomonas aeruginosa 23C5 tracheal isolates from mechanically ventilated chronic respiratory insufficiency patient
[34] = system: Pseudomonas aeruginosa; assay: Antimicrobial activity against Pseudomonas aeruginosa 65.33-3 tracheal isolates from mechanically ventilated tuberculosis patient
[35] = system: Pseudomonas aeruginosa; assay: Antimicrobial activity against Pseudomonas aeruginosa 65.36-2 tracheal isolates from mechanically ventilated tuberculosis patient
[36] = system: Pseudomonas aeruginosa; assay: Antimicrobial activity against Pseudomonas aeruginosa 65.38-2 tracheal isolates from mechanically ventilated tuberculosis patient
[37] = system: Pseudomonas aeruginosa; assay: Antimicrobial activity against Pseudomonas aeruginosa 2A1 tracheal isolates from mechanically ventilated tuberculosis patient
[38] = system: Pseudomonas aeruginosa; assay: Antimicrobial activity against Pseudomonas aeruginosa 2A2 tracheal isolates from mechanically ventilated tuberculosis patient
[39] = system: Pseudomonas aeruginosa; assay: Antimicrobial activity against Pseudomonas aeruginosa 3B1 tracheal isolates from mechanically ventilated tuberculosis patient
[40] = system: Pseudomonas aeruginosa; assay: Antimicrobial activity against Pseudomonas aeruginosa 24D1 tracheal isolates from mechanically ventilated chronic respiratory insufficiency patient
[41] = system: Pseudomonas aeruginosa; assay: Antimicrobial activity against Pseudomonas aeruginosa 24F4 tracheal isolates from mechanically ventilated chronic respiratory insufficiency patient
[42] = system: Pseudomonas aeruginosa; assay: Antimicrobial activity against Pseudomonas aeruginosa 65.18-4 tracheal isolates from mechanically ventilated tuberculosis patient
[43] = system: Pseudomonas aeruginosa; assay: Antimicrobial activity against Pseudomonas aeruginosa IA5 tracheal isolates from mechanically ventilated tuberculosis patient

For GENTAMICIN, the Activity [1] was “inactive”, the Activity [2] was “inactive” and the Activity [3] was “Active”. For the same compound, the Activity [4] was “Active”, the Activity [5] was “inactive” and the Activity [6] was “inactive”. The Activity [7] was “inactive”, the Activity [8] was “Active” and the Activity [9] was “Active”. For the same compound, the Activity [10] was “Active”, the Activity [11] was “Active” and the Activity [12] was “Active”. The Activity [13] was “Active”, the Activity [14] was “Active” and the Activity [15] was “Active”. The Activity [16] was “Active”, the Activity [17] was “Active” and the Activity [18] was “Active”. For the same compound, the Activity [19] was “Active”, the Activity [20] was “Active” and the Activity [21] was “Active”. For the same compound, the Activity [22] was “Active”, the Activity [23] was “Active” and the Activity [24] was “Active”. The Activity [25] was “Active”, the Activity [26] was “Active” and the Antimicrobial activity [27] was “Active”. For the same compound, the Activity [28] was “Active”, the Activity [29] was “Active” and the Activity [30] was “Active”. For the same compound, the Activity [31] was “Active”, the Activity [32] was “Active” and the Activity [33] was “Active”. The Activity [34] was “inactive”, the Activity [35] was “inactive” and the Activity [36] was “inactive”.

`NCC[C@H](O)C(=O)N[C@@H]1C[C@H](N)[C@@H](O[C@H]2O[C@H](CN)[C@@H](O)[C@H](O)[C@H]2O)[C@H](O)[C@H]1O[C@H]1O[C@H](CO)[C@@H](O)[C@H](N)[C@H]1O` was tested, and the Activity [1] was “inactive”, the Activity [2] was “inactive” and the Activity [3] was “Active”. For the same compound, the Activity [4] was “Active”, the Activity [37] was “Active” and the Activity [5] was “inactive”. For the same compound, the Activity [38] was “Active”, the Activity [6] was “inactive” and the Activity [39] was “Active”. The Activity [7] was “Active”, the Activity [8] was “Active” and the Activity [9] was “Active”. For the same compound, the Activity [10] was “Active”, the Activity [11] was “Active” and the Activity [12] was “Active”. For the same compound, the Activity [13] was “Active”, the Activity [14] was “Active” and the Activity [15] was “Active”. The Activity [16] was “Active”, the Activity [17] was “Active” and the Activity [18] was “Active”. For the same compound, the Activity [19] was “Active”, the Activity [20] was “Active” and the Activity [21] was “Active”. The Activity [22] was “Active”, the Activity [23] was “Active” and the Activity [24] was “Active”. The Activity [25] was “Active”, the Activity [26] was “Active” and the Antimicrobial activity [27] was “Active”. The Activity [28] was “Active”, the Activity [40] was “Active” and the Activity [29] was “Active”. For the same compound, the Activity [30] was “Active”, the Activity [31] was “Active” and the Activity [32] was “Active”. For the same compound, the Activity [33] was “Active”, the Activity [41] was “Active” and the Activity [42] was “Active”. The Activity [43] was “Active”, the Activity [34] was “inactive” and the Activity [36] was “inactive”.
